Measured values reported in patent publication US7781443B2, “Tetrahydronaphthyridine derivatives and a process for preparing the same” (Mitsubishi Tanabe Pharma Corporation, priority 2004, dated 2010).

target: T1, CETP (Homo sapiens, UniProt P11597); assay: Inhibitory activity against CETP in vitro (fluorescent BODIPY-CE transfer from donor to acceptor microemulsion in diluted human plasma); format: biochemical; conditions: plasma from a healthy volunteer diluted to 0.64%; preincubation with test solution 37° C. 24 hours; incubation with donor/acceptor microemulsion 37° C. 3 hours; fluorescence Ex.550 nm/Em.600 nm
T1 construct: from tissue; host or cells: plasma from a healthy volunteer (diluted to 0.64%)
T1 sequence (P11597 18-493): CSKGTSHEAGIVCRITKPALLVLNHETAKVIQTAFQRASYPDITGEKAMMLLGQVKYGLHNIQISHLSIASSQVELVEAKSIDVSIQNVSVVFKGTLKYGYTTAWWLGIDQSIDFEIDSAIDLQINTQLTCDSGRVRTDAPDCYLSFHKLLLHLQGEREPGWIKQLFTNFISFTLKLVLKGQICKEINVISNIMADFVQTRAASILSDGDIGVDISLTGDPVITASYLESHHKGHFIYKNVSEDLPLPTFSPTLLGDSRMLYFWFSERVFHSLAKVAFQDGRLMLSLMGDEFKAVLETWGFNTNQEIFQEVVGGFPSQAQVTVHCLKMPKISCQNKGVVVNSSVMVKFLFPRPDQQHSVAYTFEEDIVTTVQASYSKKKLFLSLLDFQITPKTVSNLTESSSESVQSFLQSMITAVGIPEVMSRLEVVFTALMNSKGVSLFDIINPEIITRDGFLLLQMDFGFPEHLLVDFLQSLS
Method: The inhibitory activity of the compounds of the present invention against CETP was tested in this experiment.
A solution of 1-Palmitoyl-2-oleoyl-sn-glycero-3-phosphocholine (3.5 mg), cholesteryl oleate (3 mg) and triolein (0.7 mg) in chloroform was mixed and lipid was air-dried under nitrogen gas to remove solvent. Dioxane (0.25 ml) was then added and the mixture was stirred for dissolution. The resultant lipid solution (0.2 ml) was slowly injected under the surface of Tris-saline-EDTA(TSE) buffer solution [10 mM Tris/HCl (pH 7.4), 0.15 M NaCl, 2 mM EDTA] (10 ml) with Hamilton syringe, while sonicating in ice-bath. After 1-hour-sonication in ice-bath, the solution was stored at 4° C.
A solution of egg PC (phosphatidylcholine) (0.33 mg) and BODIPY-CE (0.62 mg) in chloroform was mixed. After removing solvent by air-drying lipid under nitrogen gas, TSE buffer solution (3 ml) was added and the solution was sonicated in ice-bath. This solution was filtered to sterilize through 0.22 μm filter and stored at 4° C.
A test solution was prepared using dimethyl sulfoxide as a solvent. Plasma from a healthy volunteer was diluted to 0.64% with TSE buffer, and to the resultant plasma solution (187 μl) was added a test solution (3 μl) or the solvent alone followed by incubation at 37° C. for 24 hours. After addition of TSE buffer solution (10 μl) containing 5% donor microemulsion and 5% acceptor microemulsion, the mixture was incubated at 37° C. for 3 hours. Before and after the incubation, the fluorescence intensity was measured at Ex.550 nm/Em.600 nm. CETP activity was defined as the difference between the measurements obtained before incubation and after incubation. The decreasing rate of the difference in the sample was defined as the inhibition rate of CETP activity. IC50 for each sample was calculated from the inhibition rate of CETP activity.

| IC50 | SMILES |
| --- | --- |
| 0.39 nM | CCOC(=O)N1c2ccc(OC)nc2[C@@H](N(Cc2cc(C(F)(F)F)cc(C(F)(F)F)c2)c2ncc(N3CCOCC3)cn2)C[C@H]1CC [Example 22] |
| 0.11 nM | CCOC(=O)N1c2ccc(OC)nc2[C@@H](N(Cc2cc(C(F)(F)F)cc(C(F)(F)F)c2)c2ncc(OCCS(C)(=O)=O)cn2)C[C@H]1CC [Example 116] |
| 1.9 nM | CCOC(=O)N1c2ccc(OC)nc2[C@@H](N(Cc2cc(C(F)(F)F)cc(C(F)(F)F)c2)c2ncc(OCCC(=O)O)cn2)C[C@H]1CC [Example 269, (2R,4S)-4-{[3,5-bis(trifluoromethyl)benzyl]-[5-(2-carboxyethoxy)pyrimidin-2-yl]}amino-2-ethyl-6-methoxy-3,4-dihydro-2H-[1,5]naphthyridine-1-carboxylic acid ethyl ester] |
| 0.4 nM | CCOC(=O)N1c2ccc(N(C)C)nc2[C@@H](N(Cc2cc(C(F)(F)F)cc(C(F)(F)F)c2)c2ncc(N3CCN(C(C)=O)CC3)cn2)C[C@H]1CC [Example 337, (2R,4S)-4-{[5-(4-acetylpiperazin-1-yl)pyrimidin-2-yl]-[3,5-bis(trifluoromethyl)-benzyl]}amino-6-dimethylamino-2-ethyl-3,4-dihydro-2H-[1,5]naphthyridine-1-carboxylic acid ethyl ester] |
| 0.98 nM | CCC1CC(N(Cc2cc(C(F)(F)F)cc(C(F)(F)F)c2)c2ncc(CCC(=O)O)cn2)c2nc(OC)ccc2N1C(=O)OCC(F)(F)F (stereo not shown) [Example 356] |
| 4.6 nM | CCOC(=O)N1c2ccc(OC)nc2[C@@H](N(Cc2cc(C(F)(F)F)cc(C(F)(F)F)c2)c2ccc(N3CCC(C(=O)O)CC3)cn2)C[C@H]1CC [Example 383] |
| 0.83 nM | CC[C@@H]1C[C@H](N(Cc2cc(C(F)(F)F)cc(C(F)(F)F)c2)c2ncc(N3CCOCC3)cn2)c2nc(OC)ccc2N1C(=O)OCC(C)(C)C(=O)O [Example 409] |
